Values quoted from earlier work, collected in patent US6461591B1, “Medical aerosol formulations” (Jago Research AG, priority 1997, dated 2002).

Conditions: at 20° C.

Row | vapour pressure | density | Structure (SMILES)
1 | about 6 bar | – | FCC(F)(F)F [HFA 134a, 1,1,1,2-tetrafluoroethane]
2 | about 4.2 bar | about 1.4 mg/ml | FC(C(F)(F)F)C(F)(F)F [HFA 227, 1,1,1,2,3,3,3-heptafluoropropane]
